Measured values as given in the NIST ThermoML archive (doi:10.1021/je400544h).
± gives the expanded uncertainty stated by the source. One block for each molecule: values may come before it.

Settings: Liquid, Ebulliometric method (Recirculating still)

vapor or sublimation pressure (319.15 K): 101.3 ± 2 kPa
Structure (SMILES): FC(F)(F)C(Cl)(Cl)Cl [1,1,1-trichloro-2,2,2-trifluoroethane]

Structure (SMILES): CC(C)=O [acetone]
vapor or sublimation pressure (329.37 K): 101.3 ± 1.8 kPa

vapor or sublimation pressure (351.45 K): 101.3 ± 1.8 kPa
Structure (SMILES): CCO [ethanol]

Structure (SMILES): O=S(=O)(Cl)Cl [sulfuryl chloride]
vapor or sublimation pressure (342.6 K): 101.3 ± 2 kPa
